This note sets out measurements from US20220273683A1, “BORON-CONTAINING SMALL MOLECULES” (Bill & Melinda Gates Foundation, priority 2016, published 2022).

Assay type in all cases: cell-based
For assay [1], the system named is Staphylococcus aureus, MRSA (ATCC 33591). Nature of the assay: Antibacterial MIC assay (microbroth dilution, CLSI). As to conditions: 35° C., 16-20 hours. The essentials:
(§1)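 Microbroth dilution per CLSI M07-A10/M100-S25 in cation-adjusted Mueller-Hinton broth, with 3% lysed horse blood added for S. pneumoniae. Inoculum from a 0.5 McFarland direct colony suspension, diluted to 5×10^5 CFU/mL in the well. Compounds were 2-fold serially diluted; MIC read against a growth control.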

Assay [2] has as its system Streptococcus pneumoniae (ATCC 49619). The assay is described as above. As to conditions: 3% lysed horse blood, 35° C., 16-20 hours. An outline of the steps:
as §1

The subject of assay [3] is Wolbachia pipientis in C6/36 cell line. As to the kind of experiment: Anti-Wolbachia high-content assay. As to conditions: C6/36 (wAlbB) cells, 7 days at 26° C., 50% reduction of Wolbachia. From the text: C6/36 cells (ECACC #89051705, derived from Aedes albopictus larvae) were infected with Wolbachia pipientis derived from the supernatant of cultured A. albopictus Aa23 cells to create a stably Wolbachia-infected cell line C6/36 (wAlbB). This cell line was subpassaged 6-8 days prior to plating out at a density of 2000 viable cells per well in a 384-well CellCarrier plate suspended in Liebovitz media supplemented with 20% fetal bovine serum, 2% tryptose phosphate broth and 1% non-essential amino acids. Compounds were dissolved and diluted in DMSO, and compound solution was added to each well to provide a final DMSO concentration <1% and a total volume of 100 μL per well. Following 7 days of sterile incubation at 26° C., staining media containing SYTO 11 DNA dye was added to each well. After 15 minutes, all media was removed from each well and fresh media (no stain) was added. Imaging of each well was accomplished using a Perkin Elmer Operetta high-content imaging system. Five fields per well were imaged using a confocal 60× objective with the Fluorescein filter (excitation filter: 460-490 nm; emission filter: 500-550 nm). Images were analyzed using the Perkin Elmer Harmony software to score each intact cell on the basis of texture complexity of the cytoplasm. Full details can be found in: […]. Biomol. Screening, 2015, 20, […]. Compound sample wells were analyzed and normalized (along with the positive controls) against the vehicle (untreated) control to give a percentage reduction of Wolbachia-infected cells. Using the cell number analysis, compounds with a host cell number amounting to less than 50% of the vehicle control were classified as toxic and retested at a reduced compound concentration. Dose-response curves were generated with percentage reduction of Wolbachia-infected cells versus compound concentration, using 5-10 compound serial dilutions. Data were analyzed and compound EC50 is determined using a 4 parameter logistic nonlinear regression model.

The term EC50 denotes the midpoint of the concentration-response curve. Low readings indicate an effect from little substance, high ones a need for much substance. Take `C[C@@H]1CC[C@@]23CCC(=O)[C@H]2[C@]1(C)[C@H](OC(=O)COc1ccc2c(c1F)B(O)OC2)C[C@@](C)(CNS(C)(=O)=O)[C@@H](OS(C)(=O)=O)[C@@H]3C` [Compound 49, (3aR,4R,5R,7S,8S,9R,9aS,12R)-4,7,9,12-tetramethyl-7-(methylsulfonamidomethyl)-8-((methylsulfonyl)oxy)-3-oxodecahydro-4,9a-propanocyclopenta[8]annulen-5-yl2-((7-fluoro-1-hydroxy-1,3-dihydrobenzo[c][1,2]oxaborol-6-yl)oxy)acetate]: in assay [1], the “MIC Staphylococcus aureus, MRSA (ATCC 33591)” value (from here on “MIC Staphylococcus aureus”) was “C (4-32 is C)”. Also, the “MIC Streptococcus pneumoniae (ATCC 49619)” value (“MIC Streptococcus pneumoniae” below) in assay [2] was “D (≥64 is D)”. Besides, the EC50 in assay [3] was > 1000 nM.
Taken in the same sequence, the figures for `CCNC(=O)CC[C@]1(C)C[C@@H](OC(=O)COc2ccc3c(c2F)B(O)OC3)[C@]2(C)[C@H](C)CC[C@]3(CCC(=O)[C@H]32)[C@@H](C)[C@@H]1O` [Compound 4, (3aR,4R,5R,7R,8S,9R,9aS,12R)-7-(3-(ethylamino)-3-oxopropyl)-8-hydroxy-4,7,9,12-tetramethyl-3-oxodecahydro-4,9a-propanocyclopenta[8]annulen-5-yl2-((7-fluoro-1-hydroxy-1,3-dihydrobenzo[c][1,2]oxaborol-6-yl)oxy)acetate] were “B (0.5-2 is B)”, “B (0.5-2 is B)” and 283 nM.
Taken in the same sequence, the figures for `CC[C@]1(C)C[C@@H](OC(=O)COc2cc(CN)c3c(c2)B(O)OC3)[C@]2(C)[C@H](C)CC[C@]3(CCC(=O)[C@H]32)[C@@H](C)[C@@H]1O` [Compound 20, (3aR,4R,5R,7R,8S,9R,9aS,12R)-7-ethyl-8-hydroxy-4,7,9,12-tetramethyl-3-oxodecahydro-4,9a-propanocyclopenta[8]annulen-5-yl2-((4-(aminomethyl)-1-hydroxy-1,3-dihydrobenzo[c][1,2]oxaborol-6-yl)oxy)acetate] were “A (MIC of ≤0.25 is A)”, “B (0.5-2 is B)” and 101 nM.
`C[C@@H]1CC[C@@]23CCC(=O)[C@H]2[C@]1(C)[C@H](OC(=O)COc1ccc2c(c1F)B(O)OC2)C[C@@]1(C)CCC(=O)O[C@H]1[C@@H]3C` [Compound 1, (4aR,6R,7R,7aR,10aS,11R,11aS,14R)-4a,7,11,14-tetramethyl-2,8-dioxododecahydro-2H-7,10a-propanocyclopenta[6,7]cycloocta[1,2-b]pyran-6-yl2-((7-fluoro-1-hydroxy-1,3-dihydrobenzo[c][1,2]oxaborol-6-yl)oxy)acetate]: the “MIC Staphylococcus aureus” value in assay [1] is listed as “B (0.5-2 is B)”. Also, in assay [2], the “MIC Streptococcus pneumoniae” value is given as “C (4-32 is C)”. Also, the EC50 in assay [3] was > 1000 nM.
As for `C[C@@H]1CC[C@@]23CCC(=O)[C@H]2[C@]1(C)[C@H](OC(=O)COc1ccc2c(c1F)B(O)OC2)C[C@@](C)(CCC(N)=O)[C@@H](O)[C@@H]3C` [Compound 2, (3aR,4R,5R,7R,8S,9R,9aS,12R)-7-(3-amino-3-oxopropyl)-8-hydroxy-4,7,9,12-tetramethyl-3-oxodecahydro-4,9a-propanocyclopenta[8]annulen-5-yl2-((7-fluoro-1-hydroxy-1,3-dihydrobenzo[c][1,2]oxaborol-6-yl)oxy)acetate], the “MIC Staphylococcus aureus” value in assay [1] is “C (4-32 is C)”. Further, the “MIC Streptococcus pneumoniae” value in assay [2] was “C (4-32 is C)”. In assay [3], the EC50 is > 1000 nM.
